# Measured values: patent publication US8796001B2, “Metalloenzyme inhibitor compounds” (Viamet Pharmaceuticals, Inc., priority 2011, dated 2014)
# Tested on: Puccinia recondita tritici = Puccinia triticina (PUCCRT)
# Experiment: Fungicidal activity vs. leaf rust on wheat plants
# Assay type: in vivo
# Details: wheat (Yuma) sprayed at 50 ppm, inoculated the following day, rated 7-9 days later, read-out: Puccinia Rating (% Disease Control @ 50 ppm)
# From the text: D. Evaluation of Fungicidal Activity vs. Leaf Rust (Causal Agent Puccinia Recondita Tritici=Puccinia Triticina; Bayer Code PUCCRT)
# Each pot contained 3-8 seedlings. These plants were sprayed until wet with the formulated test compounds. The compounds were formulated at 50 ppm in 10 vol. % acetone plus 90 vol. % Triton X water (deionized water 99.99 wt %+0.01 wt % Triton X100), giving a “formulated test compound.” Formulated test compounds were applied to plants using a turn table sprayer fitted with two opposing air atomization nozzles which delivered approximately 1500 L/ha of spray volume. On the following day, the leaves were inoculated with an aqueous spore suspension of Puccinia recondita tritici and the plants were kept in high humidity overnight to permit spores to germinate and infect the leaf. The plants were then transferred to a greenhouse until disease developed on untreated control plants. Disease severity was evaluated 7-9 days later, depending on the speed of disease development.
# In each case of Table 3, the Puccinia rating scale is as follows: […]
row,Compound,pest or weed control at 50 ppm [%]
1,"OC(Cn1cnnn1)(c1ccc(F)cc1F)C(F)(F)c1ccc(OCc2ccc(Cl)cc2F)cn1 (stereo not shown) [Compound 1, 1-(5-(4-Chloro-2-fluorobenzyloxy)pyridin-2-yl)-2-(2,4-difluorophenyl)-1,1-difluoro-3-(1H-tetrazol-1-yl)propan-2-ol]",80 to 100
2,"OC(Cn1cnnn1)(c1ccc(F)cc1F)C(F)(F)c1ccc(OCc2ccc(F)cc2F)cn1 (stereo not shown) [Compound 2, 1-(5-(2,4-Difluorobenzyloxy)pyridin-2-yl)-2-(2,4-difluorophenyl)-1,1-difluoro-3-(1H-tetrazol-1-yl)propan-2-ol]",80 to 100
3,"OC(Cn1cnnn1)(c1ccc(F)cc1F)C(F)(F)c1ccc(OCc2cccc(F)c2)cn1 (stereo not shown) [Compound 3, 2-(2,4-Difluorophenyl)-1,1-difluoro-1-(5-(3-fluorobenzyloxy)pyridin-2-yl)-3-(1H-tetrazol-1-yl)propan-2-ol]",80 to 100
4,"N#Cc1ccc(Oc2ccc(C(F)(F)C(O)(Cn3cnnn3)c3ccc(F)cc3F)nc2)cc1 (stereo not shown) [Compound 5, 4-(6-(2-(2,4-Difluorophenyl)-1,1-difluoro-2-hydroxy-3-(1H-tetrazol-1-yl)propyl)pyridin-3-yloxy)benzonitrile]",80 to 100
5,"OC(Cn1cnnn1)(c1ccc(F)cc1F)C(F)(F)c1ccc(Oc2ccc(F)cc2)cn1 (stereo not shown) [Compound 6, 2-(2,4-Difluorophenyl)-1,1-difluoro-1-(5-(4-fluorophenoxy)pyridin-2-yl)-3-(1H-tetrazol-1-yl)propan-2-ol]",80 to 100
6,"OC(Cn1cnnn1)(c1ccc(F)cc1F)C(F)(F)c1ccc(Oc2ccc(Cl)cc2)cn1 (stereo not shown) [Compound 7, 1-(5-(4-Chlorophenoxy)pyridin-2-yl)-2-(2,4-difluorophenyl)-1,1-difluoro-3-(1H-tetrazol-1-yl)propan-2-ol]",80 to 100
7,"COc1ccc(C(F)(F)C(O)(Cn2cnnn2)c2ccc(F)cc2F)nc1 (stereo not shown) [Compound 8, 2-(2,4-Difluorophenyl)-1,1-difluoro-1-(5-methoxypyridin-2-yl)-3-(1H-tetrazol-1-yl)propan-2-ol]",80 to 100
8,"N#Cc1ccc(COc2ccc(C(F)(F)C(O)(Cn3cnnn3)c3ccc(F)cc3F)nc2)cc1 (stereo not shown) [Compound 9, 4-(((6-(2-(2,4-Difluorophenyl)-1,1-difluoro-2-hydroxy-3-(1H-tetrazol-1-yl)propyl)pyridin-3-yl)oxy)methyl)benzonitrile]",80 to 100
9,"N#Cc1ccc(COc2ccc(C(F)(F)C(O)(Cn3cnnn3)c3ccc(F)cc3F)nc2)cc1F (stereo not shown) [Compound 10, 4-(((6-(2-(2,4-Difluorophenyl)-1,1-difluoro-2-hydroxy-3-(1H-tetrazol-1-yl)propyl)pyridin-3-yl)oxy)methyl)-2-fluorobenzonitrile]",80 to 100
10,"OC(Cn1cnnn1)(c1ccc(F)cc1F)C(F)(F)c1ccc(Oc2ccccc2)cn1 (stereo not shown) [Compound 11, 2-(2,4-Difluorophenyl)-1,1-difluoro-1-(5-phenoxypyridin-2-yl)-3-(1H-tetrazol-1-yl)propan-2-ol]",80 to 100
11,"OC(Cn1cnnn1)(c1ccc(F)cc1F)C(F)(F)c1ccc(OCC(F)(F)F)cn1 (stereo not shown) [Compound 12, 2-(2,4-Difluorophenyl)-1,1-difluoro-3-(1H-tetrazol-1-yl)-1-(5-(2,2,2-trifluoroethoxy)pyridin-2-yl)propan-2-ol]",80 to 100
12,"N#Cc1ccc(CSc2ccc(C(F)(F)C(O)(Cn3cnnn3)c3ccc(F)cc3F)nc2)c(F)c1 (stereo not shown) [Compound 15, 4-(((6-(2-(2,4-Difluorophenyl)-1,1-difluoro-2-hydroxy-3-(1H-tetrazol-1-yl)propyl)pyridin-3-yl)thio)methyl)-3-fluorobenzonitrile]",40 to 59
13,"N#Cc1ccc(Oc2ccc(C(F)(F)C(O)(Cn3cnnn3)c3ccc(F)cc3F)nc2)cc1F (stereo not shown) [Compound 17, 4-((6-(2-(2,4-Difluorophenyl)-1,1-difluoro-2-hydroxy-3-(1H-tetrazol-1-yl)propyl)pyridin-3-yl)oxy)-2-fluorobenzonitrile]",80 to 100
14,"OC(Cn1cnnn1)(c1ccc(F)cc1F)C(F)(F)c1ccc(OCc2ccc(OC(F)(F)F)cc2)cn1 (stereo not shown) [Compound 21, 2-(2,4-Difluorophenyl)-1,1-difluoro-3-(1H-tetrazol-1-yl)-1-(5-((4-(trifluoromethoxy)benzyl)oxy)pyridin-2-yl)propan-2-ol]",80 to 100
15,"OC(Cn1cnnn1)(c1ccc(F)cc1F)C(F)(F)c1ccc(OCc2ccc(C(F)(F)F)cc2)cn1 (stereo not shown) [Compound 22, 2-(2,4-Difluorophenyl)-1,1-difluoro-3-(1H-tetrazol-1-yl)-1-(5-((4-(trifluoromethyl)benzyl)oxy)pyridin-2-yl)propan-2-ol]",80 to 100
16,"OC(Cn1cnnn1)(c1ccc(F)cc1F)C(F)(F)c1ccc(OCc2cccc(F)c2F)cn1 (stereo not shown) [Compound 23, 1-(5-((2,3-Difluorobenzyl)oxy)pyridin-2-yl)-2-(2,4-difluorophenyl)-1,1-difluoro-3-(1H-tetrazol-1-yl)propan-2-ol]",80 to 100

row,Compound,pest or weed control at 50 ppm [%]
1,"OC(Cn1cnnn1)(c1ccc(F)cc1F)C(F)(F)c1ccc(OCc2ccc(C(F)(F)F)cc2F)cn1 (stereo not shown) [Compound 24, 2-(2,4-Difluorophenyl)-1,1-difluoro-1-(5-((2-fluoro-4-(trifluoromethyl)benzyl)oxy)pyridin-2-yl)-3-(1H-tetrazol-1-yl)propan-2-ol]",80 to 100
2,"OC(Cn1cnnn1)(c1ccc(F)cc1F)C(F)(F)c1ccc(OCc2cccc(C(F)(F)F)c2)cn1 (stereo not shown) [Compound 26, 2-(2,4-Difluorophenyl)-1,1-difluoro-3-(1H-tetrazol-1-yl)-1-(5-((3-(trifluoromethyl)benzyl)oxy)pyridin-2-yl)propan-2-ol]",80 to 100
3,"OC(Cn1cnnn1)(c1ccc(F)cc1F)C(F)(F)c1ccc(OCc2ccc(Cl)c(F)c2)cn1 (stereo not shown) [Compound 27, 1-(5-((4-Chloro-3-fluorobenzyl)oxy)pyridin-2-yl)-2-(2,4-difluorophenyl)-1,1-difluoro-3-(1H-tetrazol-1-yl)propan-2-ol]",80 to 100
4,"OC(Cn1cnnn1)(c1ccc(F)cc1F)C(F)(F)c1ccc(OCc2ccc(F)c(F)c2)cn1 (stereo not shown) [Compound 28, 1-(5-((3,4-Difluorobenzyl)oxy)pyridin-2-yl)-2-(2,4-difluorophenyl)-1,1-difluoro-3-(1H-tetrazol-1-yl)propan-2-ol]",80 to 100
5,"COc1cccc(COc2ccc(C(F)(F)C(O)(Cn3cnnn3)c3ccc(F)cc3F)nc2)c1 (stereo not shown) [Compound 34, 2-(2,4-Difluorophenyl)-1,1-difluoro-1-(5-((3-methoxybenzyl)oxy)pyridin-2-yl)-3-(1H-tetrazol-1-yl)propan-2-ol]",80 to 100
6,"OC(Cn1cnnn1)(c1ccc(F)cc1F)C(F)(F)c1ccc(OCc2cc(F)cc(F)c2)cn1 (stereo not shown) [Compound 35, 1-(5-((3,5-Difluorobenzyl)oxy)pyridin-2-yl)-2-(2,4-difluorophenyl)-1,1-difluoro-3-(1H-tetrazol-1-yl)propan-2-ol]",80 to 100
7,"OC(Cn1cnnn1)(c1ccc(F)cc1F)C(F)(F)c1ccc(OCc2ccccn2)cn1 (stereo not shown) [Compound 37, 2-(2,4-Difluorophenyl)-1,1-difluoro-1-(5-(pyridin-2-ylmethoxy)pyridin-2-yl)-3-(1H-tetrazol-1-yl)propan-2-ol]",80 to 100
8,"OC(Cn1cnnn1)(c1ccc(F)cc1F)C(F)(F)c1ccc(OCC2CC2)cn1 (stereo not shown) [Compound 39, 1-(5-(Cyclopropylmethoxy)pyridin-2-yl)-2-(2,4-difluorophenyl)-1,1-difluoro-3-(1H-tetrazol-1-yl)propan-2-ol]",80 to 100
9,"COc1ccc(COc2ccc(C(F)(F)C(O)(Cn3cnnn3)c3ccc(F)cc3F)nc2)cc1 (stereo not shown) [Compound 41, 2-(2,4-Difluorophenyl)-1,1-difluoro-1-(5-((4-methoxybenzyl)oxy)pyridin-2-yl)-3-(1H-tetrazol-1-yl)propan-2-ol]",80 to 100
10,"CC(C)Oc1ccc(C(F)(F)C(O)(Cn2cnnn2)c2ccc(F)cc2F)nc1 (stereo not shown) [Compound 42, 2-(2,4-Difluorophenyl)-1,1-difluoro-1-(5-isopropoxypyridin-2-yl)-3-(1H-tetrazol-1-yl)propan-2-ol]",80 to 100
11,"CC(C)COc1ccc(C(F)(F)C(O)(Cn2cnnn2)c2ccc(F)cc2F)nc1 (stereo not shown) [Compound 43, 2-(2,4-Difluorophenyl)-1,1-difluoro-1-(5-isobutoxypyridin-2-yl)-3-(1H-tetrazol-1-yl)propan-2-ol]",80 to 100
12,"OC(Cn1cncn1)(c1ccc(F)cc1F)C(F)(F)c1ccc(OCc2cccc(F)c2F)cn1 (stereo not shown) [Compound 45, 1-(5-((2,3-Difluorobenzyl)oxy)pyridin-2-yl)-2-(2,4-difluorophenyl)-1,1-difluoro-3-(1H-1,2,4-triazol-1-yl)propan-2-ol]",80 to 100
13,"OC(Cn1cnnn1)(c1ccc(F)cc1F)C(F)(F)c1ccc(OCc2ccccc2F)cn1 (stereo not shown) [Compound 46, 2-(2,4-Difluorophenyl)-1,1-difluoro-1-(5-((2-fluorobenzyl)oxy)pyridin-2-yl)-3-(1H-tetrazol-1-yl)propan-2-ol]",80 to 100
14,"CC(Oc1ccc(C(F)(F)C(O)(Cn2cnnn2)c2ccc(F)cc2F)nc1)C(F)(F)F (stereo not shown) [Compound 47, 2-(2,4-Difluorophenyl)-1,1-difluoro-3-(1H-tetrazol-1-yl)-1-(5-((1,1,1-trifluoropropan-2-yl)oxy)pyridin-2-yl)propan-2-ol]",80 to 100
15,"OC(Cn1cnnn1)(c1ccc(F)cc1F)C(F)(F)c1ccc(OCc2cccs2)cn1 (stereo not shown) [Compound 49, 2-(2,4-Difluorophenyl)-1,1-difluoro-3-(1H-tetrazol-1-yl)-1-(5-(thiophen-2-ylmethoxy)pyridin-2-yl)propan-2-ol]",80 to 100
